This is an account of results in patent US20230143612A1 (Arbutus Biopharma Corporation, priority 2020, published 2023).

Each structure is given as a SMILES string.

This test addresses PD-L1 His protein / PD-1 Fc protein (Homo sapiens, UniProt Q9NZQ7). Description: HTRF Assay (PD-1/PD-L1 interaction). It counts as binding. As to conditions: PD-L1 His 6 nM, PD-1 Fc 6 nM. The essentials:
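Compounds tested from 20 μM down to 0.001 μM (3-fold) against 6 nM PD-L1 His and 6 nM PD-1 Fc, 15 min room temperature incubation. Detection after 1 h at room temperature with Tb cryptate anti-6HIS and XL665 anti-human IgG reagents (mixture at 0.35 nM and 6.7 nM), HTRF signal.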

PD-L1 His protein / PD-1 Fc protein, sequence (Q9NZQ7 19-238 limits assumed): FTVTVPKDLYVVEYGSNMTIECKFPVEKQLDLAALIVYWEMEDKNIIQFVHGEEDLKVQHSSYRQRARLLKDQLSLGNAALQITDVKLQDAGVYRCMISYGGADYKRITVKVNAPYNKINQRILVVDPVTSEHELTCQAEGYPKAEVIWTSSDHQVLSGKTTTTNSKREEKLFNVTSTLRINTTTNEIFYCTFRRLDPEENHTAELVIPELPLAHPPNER

Molecule `COc1nc(-c2cccc(-c3cccc(-c4ccc5nn(CCCN6C(=O)c7ccccc7C6=O)c(=O)n5c4)c3Cl)c2Cl)ccc1CNC[C@@H]1CCC(=O)N1` [Example 391, (S)-2-(3-(6-(2,2′-Dichloro-3′-(6-methoxy-5-((((5-oxopyrrolidin-2-yl)methyl)amino)methyl)pyridin-2-yl)-[1,1′-biphenyl]-3-yl)-3-oxo-[1,2,4]triazolo[4,3-a]pyridin-2(3H)-yl)propyl)isoindoline-1,3-dione] had an IC50 of 65 nM.

Molecule `COc1nc(-c2cccc(-c3cccc(-c4ccc5nn(CCCN(CC(C)C)CC(C)C)c(=O)n5c4)c3Cl)c2Cl)ccc1CNC[C@@H]1CCC(=O)N1` [Example 392, (S)-6-(2,2′-Dichloro-3′-(6-methoxy-5-((((5-oxopyrrolidin-2-yl)methyl)-amino)-methyl)pyridin-2-yl)-[1,1′-biphenyl]-3-yl)-2-(3-(diisobutylamino)propyl)-[1,2,4]triazolo[4,3-a]pyridin-3(2H)-one] returned a half-maximal inhibitory concentration (IC50) of 6.7 nM.

`COc1nc(-c2cccc(-c3cccc(-c4ccn5c(=O)c(CN[C@H]6C[C@](C)(O)C6)cnc5c4)c3Cl)c2Cl)cc(Cl)c1CNC[C@@H]1CCC(=O)N1` [Example 393, 8-(2,2′-Dichloro-3′-(4-chloro-6-methoxy-5-(((((S)-5-oxopyrrolidin-2-yl)methyl)amino)methyl)pyridin-2-yl)-[1,1′-biphenyl]-3-yl)-3-((((1r,3r)-3-hydroxy-3-methylcyclobutyl)amino)methyl)-4H-pyrido[1,2-a]pyrimidin-4-one] displayed an IC50 of 62 nM.

The molecule `COc1cc(-c2cccc(-c3cccc(-c4cc5c(c(OC)c4)CN(C[C@@H]4CCC(=O)N4)CC5)c3Cl)c2Cl)cc2c1CN(C[C@@H]1CCC(=O)N1)CC2` [Example 394, (5S,5'S)-5,5′-((6,6′-(2,2′-Dichloro-[1,1′-biphenyl]-3,3′-diyl)bis(8-methoxy-3,4-dihydroisoquinoline-6,2(1H)-diyl))bis(methylene))bis(pyrrolidin-2-one)] had an IC50 of 71 nM.

`COc1nc(-c2cccc(-c3cccc(-c4cc5c(=O)n(C)c(CN(C)CCO)nn5c4)c3Cl)c2Cl)ccc1CNC[C@@H]1CCC(=O)N1` [Example 395, (S)-6-(2,2′-Dichloro-3′-(6-methoxy-5-((((5-oxopyrrolidin-2-yl)methyl)amino)methyl)pyridin-2-yl)-[1,1′-biphenyl]-3-yl)-2-(((2-hydroxyethyl)(methyl)amino)methyl)-3-methylpyrrolo[2,1-f][1,2,4]triazin-4(3H)-one] displayed an IC50 of 6.7 nM.

As for `COc1nc(-c2cccc(-c3cccc(-c4ccn5c(=O)c6c(nc5c4)OCCNC6)c3Cl)c2Cl)ccc1CNC[C@@H]1CCC(=O)N1` [Example 396, (S)-10-(2,2′-Dichloro-3′-(6-methoxy-5-((((5-oxopyrrolidin-2-yl)methyl)amino)methyl)pyridin-2-yl)-[1,1′-biphenyl]-3-yl)-4,5-dihydro-2H-pyrido[1′,2′:1,2]pyrimido[5,4-f][1,4]oxazepin-6(3H)-one], the midpoint of inhibition, the IC50, lay at 15 nM.

`COc1nc(-c2cccc(-c3cccc(-c4cc(OC)c5c(CNC[C@@H]6CCC(=O)N6)cnn5c4)c3Cl)c2Cl)ccc1CNC[C@@H]1CCC(=O)N1` [Example 397] yielded a concentration for half-maximal inhibition (IC50) of 290 nM.

In turn, `COc1nc(-c2cccc(-c3cccc(-c4ccc5c(OC)c(CNC[C@@H]6CCC(=O)N6)cc(Cl)c5n4)c3Cl)c2Cl)cc(F)c1CNC[C@@H]1CCC(=O)N1` [Example 398, (S)-5-((((8-Chloro-2-(2,2′-dichloro-3′-(4-fluoro-6-methoxy-5-(((((S)-5-oxopyrrolidin-2-yl)methyl)amino)methyl)pyridin-2-yl)-[1,1′-biphenyl]-3-yl)-5-methoxyquinolin-6-yl)methyl)amino)methyl)pyrrolidin-2-one] yielded an IC50 of 28 nM.

As for `CCc1nc2cc(-c3cccc(-c4cccc(-c5ccc(CNC[C@@H]6CCC(=O)N6)c(OC)n5)c4Cl)c3Cl)ccn2c(=O)c1CNC[C@@H]1CCC(=O)N1` [Example 399, 8-(2,2′-Dichloro-3′-(6-methoxy-5-(((((S)-5-oxopyrrolidin-2-yl)methyl)amino)methyl)pyridin-2-yl)-[1,1′-biphenyl]-3-yl)-2-ethyl-3-(((((S)-5-oxopyrrolidin-2-yl)methyl)amino)methyl)-4H-pyrido[1,2-a]pyrimidin-4-one], the IC50 was 110 nM.

As to `COc1nc(-c2cccc(-c3cccc(-c4cc(F)c5c(c4)CCN(CCNC[C@@H]4CCC(=O)N4)C5=O)c3Cl)c2Cl)ccc1CNC[C@@H]1CCC(=O)N1` [Example 400, 6-(2,2′-Dichloro-3′-(6-methoxy-5-(((((S)-5-oxopyrrolidin-2-yl)methyl)amino)methyl)pyridin-2-yl)-[1,1′-biphenyl]-3-yl)-8-fluoro-2-(2-((((S)-5-oxopyrrolidin-2-yl)methyl)amino)ethyl)-3,4-dihydroisoquinolin-1(2H)-one], the IC50 came to 550 nM.

The molecule `COc1nc(-c2cccc(-c3cccc(-c4ncc5c(CNC[C@@H]6CCC(=O)N6)cn(C)c5n4)c3Cl)c2Cl)ccc1CNC[C@@H]1CCC(=O)N1` [Example 401, (S)-5-((((2-(2,2′-Dichloro-3′-(6-methoxy-5-(((((S)-5-oxopyrrolidin-2-yl)methyl)amino)methyl)pyridin-2-yl)-[1,1′-biphenyl]-3-yl)-7-methyl-7H-pyrrolo[2,3-d]pyrimidin-5-yl)methyl)amino)methyl)pyrrolidin-2-one] showed a half-maximal inhibitory concentration (IC50) of 0.1 nM.

On to `COc1nc(-c2cccc(-c3cccc(-c4cc5c(cn4)c(CNC[C@@H]4CCC(=O)N4)cn5C)c3Cl)c2Cl)ccc1CNC[C@@H]1CCC(=O)N1` [Example 402, (S)-5-((((6-(2,2′-Dichloro-3′-(1-methyl-3-(((((S)-5-oxopyrrolidin-2-yl)methyl)amino)methyl)-1H-pyrrolo[3,2-c]pyridin-6-yl)-[1,1′-biphenyl]-3-yl)-2-methoxypyridin-3-yl)methyl)amino)methyl)pyrrolidin-2-one], for which half-maximal inhibition (IC50) was put at 50 nM.

In turn, `COc1nc(-c2cccc(-c3cccc(-c4cnc5c(c4)CNCC(=O)N5)c3Cl)c2Cl)ccc1CNC[C@@H]1CCC(=O)N1` [Example 403, (S)-7-(2,2′-Dichloro-3′-(6-methoxy-5-((((5-oxopyrrolidin-2-yl)methyl)amino)methyl)pyridin-2-yl)-[1,1′-biphenyl]-3-yl)-1,3,4,5-tetrahydro-2H-pyrido[2,3-e][1,4]diazepin-2-one] had a 50% inhibitory concentration (IC50) of 0.1 nM.

In turn, `COc1nc(-c2cccc(-c3cccc(-c4ccn5c(=O)c(CNC[C@@H]6CCC(=O)N6)c(C)nc5c4)c3Cl)c2Cl)cc(F)c1CNC[C@@H]1CCC(=O)N1` [Example 404, 8-(2,2′-Dichloro-3′-(4-fluoro-6-methoxy-5-(((((S)-5-oxopyrrolidin-2-yl)methyl)amino)methyl)pyridin-2-yl)-[1,1′-biphenyl]-3-yl)-2-methyl-3-(((((S)-5-oxopyrrolidin-2-yl)methyl)amino)methyl)-4H-pyrido[1,2-a]pyrimidin-4-one] registered a concentration for half-maximal inhibition (IC50) of 0.1 nM.

In turn, `COc1nc(-c2cccc(-c3cccc(-c4cc5c(=O)n(C)c(CNCC(C)(C)O)nn5c4)c3Cl)c2Cl)ccc1CNC[C@@H]1CCC(=O)N1` [Example 405, (S)-6-(2,2′-Dichloro-3′-(6-methoxy-5-((((5-oxopyrrolidin-2-yl)methyl)amino)methyl)pyridin-2-yl)-[1,1′-biphenyl]-3-yl)-2-(((2-hydroxy-2-methylpropyl)amino)methyl)-3-methylpyrrolo [2,1-f][1,2,4]triazin-4(3H)-one] displayed a 50% inhibitory concentration (IC50) of 84 nM.

`COc1nc(-c2cccc(-c3cccc(-c4cc5c(=O)n(C)c(CNCCC(F)(F)F)nn5c4)c3Cl)c2Cl)ccc1CNC[C@@H]1CCC(=O)N1` [Example 406, (S)-6-(2,2′-Dichloro-3′-(6-methoxy-5-((((5-oxopyrrolidin-2-yl)methyl)amino)methyl)pyridin-2-yl)-[1,1′-biphenyl]-3-yl)-3-methyl-2-(((3,3,3-trifluoropropyl)amino)methyl)pyrrolo[2,1-f][1,2,4]triazin-4(3H)-one] yielded an IC50 of 33 nM.

Molecule `COc1nc(-c2cccc(-c3cccc(-c4ccn5c(=O)c(CNC[C@H]6C[C@H]6CO)cnc5c4)c3Cl)c2Cl)ccc1CNC[C@@H]1CCC(=O)N1` [Example 408, 8-(2,2′-Dichloro-3′-(6-methoxy-5-(((((S)-5-oxopyrrolidin-2-yl)methyl)amino)methyl)pyridin-2-yl)-[1,1′-biphenyl]-3-yl)-3-(((((1S,2R)-2-(hydroxymethyl)cyclopropyl)methyl)amino)methyl)-4H-pyrido[1,2-a]pyrimidin-4-one] displayed a half-inhibitory concentration (IC50) of 1.1 nM.

Molecule `COc1nc(-c2cccc(-c3cccc(-c4ccn5c(=O)c(CNC[C@@H]6C[C@@H]6CO)cnc5c4)c3Cl)c2Cl)ccc1CNC[C@@H]1CCC(=O)N1` [Example 409, 8-(2,2′-Dichloro-3′-(6-methoxy-5-(((((S)-5-oxopyrrolidin-2-yl)methyl)amino)methyl)pyridin-2-yl)-[1,1′-biphenyl]-3-yl)-3-(((((1R,2S)-2-(hydroxymethyl)cyclopropyl)methyl)amino)methyl)-4H-pyrido[1,2-a]pyrimidin-4-one] returned an IC50 of 0.2 nM.

In turn, `CN1CCNCc2ccc(-c3cccc(-c4cccc(-c5ccn6c(=O)c(CNC[C@@H]7CCC(=O)N7)cnc6c5)c4Cl)c3Cl)cc21` [Example 410, (S)-8-(2,2′-Dichloro-3′-(1-methyl-2,3,4,5-tetrahydro-1H-benzo[e][1,4]diazepin-8-yl)-[1,1′-biphenyl]-3-yl)-3-((((5-oxopyrrolidin-2-yl)methyl)amino)methyl)-4H-pyrido[1,2-a]pyrimidin-4-one] displayed an IC50 of 120 nM.

For the molecule `COc1nc(-c2cccc(-c3cccc(-c4ccc5c(CNC[C@H](C)O)cn(C)c5n4)c3Cl)c2Cl)ccc1CNC[C@@H]1CCC(=O)N1` [Example 411, (5S)-5-[[[6-[2-Chloro-3-[2-chloro-3-[3-[[[(2S)-2-hydroxypropyl]amino]methyl]-1-methyl-pyrrolo[2,3-b]pyridin-6-yl]phenyl]phenyl]-2-methoxy-3-pyridyl]methylamino]methyl]pyrrolidin-2-one], 1.6 nM corresponded to half-maximal inhibition (IC50).
